Where two headings read alike, the source gives them in different places.
Assays:
5-HT6 = 5-HT6 (Homo sapiens, UniProt P50406); experiment: PDSP screening affinity 5-HT6; type: binding
5-HT2A receptor [1] = molecular target: T1, 5-HT2A receptor (Homo sapiens, UniProt P28223); experiment: h5-HT2A affinity, agonist radioligand [125I]DOI; type: binding
Male C57BL/6J mice = experiment: Mouse head twitch response; conditions: for max counts: HTR counts
h5-HT2B = h5-HT2B (Homo sapiens, UniProt P41595); experiment: Ca2+ mobilization assay; type: cell-based
5-HT2B = 5-HT2B (Homo sapiens, UniProt P41595); experiment: PDSP screening affinity 5-HT2B; type: binding
5-HT1B = 5-HT1B (Homo sapiens, UniProt P28222); experiment: PDSP screening affinity 5-HT1B; type: binding; conditions: for Ki: read-out: 5-HT1B affinity
human 5-HT2C receptor [2] = molecular target: T2, human 5-HT2C receptor (Homo sapiens, UniProt P28335); experiment: h5-HT2C affinity, agonist radioligand [125I]DOI; type: binding
T2 sequence (P28335 33-458): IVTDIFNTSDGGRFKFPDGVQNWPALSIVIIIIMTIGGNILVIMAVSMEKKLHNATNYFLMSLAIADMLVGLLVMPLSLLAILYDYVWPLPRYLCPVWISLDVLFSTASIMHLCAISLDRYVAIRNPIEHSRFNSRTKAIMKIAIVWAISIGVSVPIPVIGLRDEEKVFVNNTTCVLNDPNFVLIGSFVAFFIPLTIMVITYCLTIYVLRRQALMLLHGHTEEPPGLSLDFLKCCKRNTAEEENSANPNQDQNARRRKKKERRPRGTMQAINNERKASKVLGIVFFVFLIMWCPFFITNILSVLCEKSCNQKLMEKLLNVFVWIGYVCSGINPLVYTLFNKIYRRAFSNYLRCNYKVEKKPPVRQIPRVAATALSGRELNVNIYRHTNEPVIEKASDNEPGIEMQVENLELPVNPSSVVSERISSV

5-HT1D = 5-HT1D (Homo sapiens, UniProt P28221); experiment: PDSP screening affinity 5-HT1D; type: binding
5-ht5a = 5-ht5a (Homo sapiens, UniProt P47898); experiment: PDSP screening affinity 5-ht5a; type: binding
5-ht1e = 5-ht1e (Homo sapiens, UniProt P28566); experiment: PDSP screening affinity 5-ht1e; type: binding
h5-HT2A = h5-HT2A (Homo sapiens, UniProt P28223); experiment: Ca2+ mobilization assay; type: cell-based
human 5-HT2C receptor [3] = molecular target: T2, human 5-HT2C receptor; experiment: h5-HT2C affinity, antagonist radioligand [3H]mesulergine; type: binding
5-HT1A = molecular target: T3, 5-HT1A (Homo sapiens, UniProt P08908); experiment: PDSP screening affinity 5-HT1A; type: binding
T3 sequence (P08908 1-422): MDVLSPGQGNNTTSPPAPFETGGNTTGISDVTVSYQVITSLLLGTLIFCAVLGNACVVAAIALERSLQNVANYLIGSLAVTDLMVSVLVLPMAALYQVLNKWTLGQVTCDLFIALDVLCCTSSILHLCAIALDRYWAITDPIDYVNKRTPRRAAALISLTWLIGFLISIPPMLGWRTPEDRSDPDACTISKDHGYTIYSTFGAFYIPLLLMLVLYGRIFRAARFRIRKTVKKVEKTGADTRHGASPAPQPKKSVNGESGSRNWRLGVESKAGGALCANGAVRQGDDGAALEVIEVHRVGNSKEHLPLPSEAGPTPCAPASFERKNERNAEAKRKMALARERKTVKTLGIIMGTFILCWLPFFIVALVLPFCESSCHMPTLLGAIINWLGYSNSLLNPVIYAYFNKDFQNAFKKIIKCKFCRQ

h5-HT2C = molecular target: T4, h5-HT2C (Homo sapiens, UniProt P28335); experiment: Ca2+ mobilization assay; type: cell-based
T4 sequence (P28335 33-458): T2 sequence (P28335 33-458)

r5-HT2A = r5-HT2A (Rattus norvegicus, UniProt P14842); experiment: Ca2+ mobilization assay; type: cell-based
5-HT7 = 5-HT7 (Homo sapiens, UniProt P34969); experiment: PDSP screening affinity 5-HT7; type: binding
5-HT3 = molecular target: T5, 5-HT3 (Homo sapiens, UniProt P46098); experiment: PDSP screening affinity 5-HT3; type: binding
T5 sequence (P46098 24-478): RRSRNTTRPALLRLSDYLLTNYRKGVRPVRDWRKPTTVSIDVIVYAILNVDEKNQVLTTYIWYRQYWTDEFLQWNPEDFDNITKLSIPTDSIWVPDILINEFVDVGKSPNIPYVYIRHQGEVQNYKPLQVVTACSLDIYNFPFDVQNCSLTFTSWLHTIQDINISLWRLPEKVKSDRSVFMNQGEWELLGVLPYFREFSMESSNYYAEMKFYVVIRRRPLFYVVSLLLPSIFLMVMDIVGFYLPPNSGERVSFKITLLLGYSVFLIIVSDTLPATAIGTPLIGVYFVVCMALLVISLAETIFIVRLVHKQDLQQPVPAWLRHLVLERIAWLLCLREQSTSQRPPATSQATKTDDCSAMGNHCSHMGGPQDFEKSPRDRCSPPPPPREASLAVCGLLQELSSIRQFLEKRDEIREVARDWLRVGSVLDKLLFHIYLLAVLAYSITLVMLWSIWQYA

5-HT2A receptor [4] = molecular target: T1, 5-HT2A receptor; experiment: h5-HT2A affinity, antagonist radioligand [3H]ketanserin; type: binding
r5-HT2C = molecular target: T6, r5-HT2C (Rattus norvegicus, UniProt P08909); experiment: Ca2+ mobilization assay; type: cell-based
T6 sequence (P08909 33-460): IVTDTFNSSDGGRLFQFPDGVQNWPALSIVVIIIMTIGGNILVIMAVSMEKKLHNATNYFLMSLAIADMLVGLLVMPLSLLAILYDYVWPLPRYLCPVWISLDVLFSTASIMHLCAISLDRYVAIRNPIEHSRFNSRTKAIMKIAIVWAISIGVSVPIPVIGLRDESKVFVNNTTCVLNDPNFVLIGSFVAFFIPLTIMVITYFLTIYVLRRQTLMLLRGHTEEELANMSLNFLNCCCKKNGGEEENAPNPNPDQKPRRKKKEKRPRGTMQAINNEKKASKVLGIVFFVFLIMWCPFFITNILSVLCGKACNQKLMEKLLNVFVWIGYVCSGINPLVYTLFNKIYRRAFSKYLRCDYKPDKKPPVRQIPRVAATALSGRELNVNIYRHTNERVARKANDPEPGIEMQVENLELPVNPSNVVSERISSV

[5] = [125I]DOI, n = 3–5 displacement curves
[6] = percentage of the maximum response to 5-HT

Chain of r5-HT2A (P14842 whole entry): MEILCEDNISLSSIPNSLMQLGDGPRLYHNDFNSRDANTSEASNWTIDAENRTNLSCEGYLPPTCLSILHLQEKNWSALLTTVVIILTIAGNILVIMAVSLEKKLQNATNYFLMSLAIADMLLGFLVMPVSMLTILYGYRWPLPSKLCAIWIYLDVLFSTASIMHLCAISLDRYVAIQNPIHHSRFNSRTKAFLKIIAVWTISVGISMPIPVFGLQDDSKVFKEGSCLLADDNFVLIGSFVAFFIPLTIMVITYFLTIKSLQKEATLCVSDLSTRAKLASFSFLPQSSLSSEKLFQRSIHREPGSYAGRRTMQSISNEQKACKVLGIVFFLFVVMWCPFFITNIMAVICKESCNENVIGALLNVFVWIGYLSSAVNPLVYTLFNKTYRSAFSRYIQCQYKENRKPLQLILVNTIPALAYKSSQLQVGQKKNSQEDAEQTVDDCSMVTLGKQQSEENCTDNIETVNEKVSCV
Chain of 5-HT1B (P28222 whole entry): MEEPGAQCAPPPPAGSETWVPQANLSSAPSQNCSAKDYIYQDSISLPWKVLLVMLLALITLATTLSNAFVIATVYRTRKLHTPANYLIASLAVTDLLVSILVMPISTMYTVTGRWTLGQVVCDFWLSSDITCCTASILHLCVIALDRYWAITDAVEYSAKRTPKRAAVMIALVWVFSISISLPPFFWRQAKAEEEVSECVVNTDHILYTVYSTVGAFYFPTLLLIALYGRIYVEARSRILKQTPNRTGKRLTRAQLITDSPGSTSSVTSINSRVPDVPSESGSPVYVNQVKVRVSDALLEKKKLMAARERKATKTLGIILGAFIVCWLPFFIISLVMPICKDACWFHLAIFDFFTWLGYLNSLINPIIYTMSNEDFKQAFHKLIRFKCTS
Chain of 5-HT7 (P34969 whole entry): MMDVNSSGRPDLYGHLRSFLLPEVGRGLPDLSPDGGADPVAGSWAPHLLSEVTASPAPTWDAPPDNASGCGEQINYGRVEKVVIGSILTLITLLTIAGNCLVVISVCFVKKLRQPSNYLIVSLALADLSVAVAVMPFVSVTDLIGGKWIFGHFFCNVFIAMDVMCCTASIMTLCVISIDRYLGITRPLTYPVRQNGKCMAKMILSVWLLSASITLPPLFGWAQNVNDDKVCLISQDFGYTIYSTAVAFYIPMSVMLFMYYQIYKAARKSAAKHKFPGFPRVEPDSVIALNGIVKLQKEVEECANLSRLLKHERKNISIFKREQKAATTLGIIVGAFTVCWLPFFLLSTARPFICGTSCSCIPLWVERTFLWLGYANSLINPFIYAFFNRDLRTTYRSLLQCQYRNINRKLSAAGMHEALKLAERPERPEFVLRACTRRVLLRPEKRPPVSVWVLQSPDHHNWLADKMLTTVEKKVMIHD
Chain of 5-HT6 (P50406 whole entry): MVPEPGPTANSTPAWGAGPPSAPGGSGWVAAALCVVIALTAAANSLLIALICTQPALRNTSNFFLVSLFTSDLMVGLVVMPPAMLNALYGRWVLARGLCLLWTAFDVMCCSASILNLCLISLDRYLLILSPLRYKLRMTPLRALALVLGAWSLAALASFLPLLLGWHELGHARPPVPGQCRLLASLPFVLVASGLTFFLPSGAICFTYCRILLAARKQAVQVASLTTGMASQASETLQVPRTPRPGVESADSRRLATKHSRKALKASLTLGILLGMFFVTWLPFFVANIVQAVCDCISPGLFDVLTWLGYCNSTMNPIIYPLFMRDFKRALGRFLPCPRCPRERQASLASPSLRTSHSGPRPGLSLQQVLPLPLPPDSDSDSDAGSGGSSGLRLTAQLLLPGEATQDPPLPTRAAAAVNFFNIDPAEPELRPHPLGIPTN
Chain of 5-HT1D (P28221 whole entry): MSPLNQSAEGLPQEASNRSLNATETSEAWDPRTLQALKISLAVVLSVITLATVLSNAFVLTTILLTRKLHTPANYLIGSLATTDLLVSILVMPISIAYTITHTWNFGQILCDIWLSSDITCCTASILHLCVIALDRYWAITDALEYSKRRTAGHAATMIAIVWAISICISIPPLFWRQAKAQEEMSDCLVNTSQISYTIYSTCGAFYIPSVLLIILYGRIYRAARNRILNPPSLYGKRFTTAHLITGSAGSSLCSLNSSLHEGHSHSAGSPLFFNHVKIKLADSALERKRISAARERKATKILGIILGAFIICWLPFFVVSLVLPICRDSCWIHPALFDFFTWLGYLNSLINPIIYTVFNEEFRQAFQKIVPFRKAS
T1 sequence (P28223 whole entry): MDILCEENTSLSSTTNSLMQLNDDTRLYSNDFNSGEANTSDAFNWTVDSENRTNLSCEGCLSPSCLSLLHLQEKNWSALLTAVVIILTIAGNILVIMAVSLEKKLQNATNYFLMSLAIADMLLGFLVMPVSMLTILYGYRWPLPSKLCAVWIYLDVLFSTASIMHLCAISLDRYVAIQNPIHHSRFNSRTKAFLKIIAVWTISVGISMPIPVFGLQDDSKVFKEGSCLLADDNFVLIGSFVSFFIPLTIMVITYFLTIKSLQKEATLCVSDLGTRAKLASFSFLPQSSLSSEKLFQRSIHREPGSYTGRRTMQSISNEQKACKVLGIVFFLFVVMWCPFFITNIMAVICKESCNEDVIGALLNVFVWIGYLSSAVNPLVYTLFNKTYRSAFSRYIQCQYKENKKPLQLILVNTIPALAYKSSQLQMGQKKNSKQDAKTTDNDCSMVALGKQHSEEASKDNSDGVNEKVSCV
Chain of h5-HT2A (P28223 whole entry): as above
Chain of 5-ht5a (P47898 whole entry): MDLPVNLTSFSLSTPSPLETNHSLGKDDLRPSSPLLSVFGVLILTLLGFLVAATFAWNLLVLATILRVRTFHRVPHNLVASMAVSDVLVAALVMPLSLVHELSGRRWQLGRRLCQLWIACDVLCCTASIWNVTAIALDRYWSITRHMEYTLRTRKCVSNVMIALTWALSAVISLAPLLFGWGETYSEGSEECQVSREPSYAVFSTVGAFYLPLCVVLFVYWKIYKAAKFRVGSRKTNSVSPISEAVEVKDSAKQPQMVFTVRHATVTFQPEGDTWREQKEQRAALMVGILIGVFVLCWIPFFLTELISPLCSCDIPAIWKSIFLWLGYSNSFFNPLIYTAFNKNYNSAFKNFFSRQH
Chain of h5-HT2B (P41595 whole entry): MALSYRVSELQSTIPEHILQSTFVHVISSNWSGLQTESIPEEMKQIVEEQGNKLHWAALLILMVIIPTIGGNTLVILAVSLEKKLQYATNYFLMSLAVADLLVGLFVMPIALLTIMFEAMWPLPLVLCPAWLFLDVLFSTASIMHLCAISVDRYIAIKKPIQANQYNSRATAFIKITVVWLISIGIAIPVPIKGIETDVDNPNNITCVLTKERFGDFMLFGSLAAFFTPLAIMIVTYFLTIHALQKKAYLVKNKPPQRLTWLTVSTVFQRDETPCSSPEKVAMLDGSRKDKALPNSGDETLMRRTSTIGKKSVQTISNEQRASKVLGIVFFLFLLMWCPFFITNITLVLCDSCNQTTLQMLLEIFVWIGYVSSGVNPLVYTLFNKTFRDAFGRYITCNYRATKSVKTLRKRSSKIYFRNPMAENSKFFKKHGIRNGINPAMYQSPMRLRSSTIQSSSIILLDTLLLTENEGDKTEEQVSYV
Chain of 5-HT2B (P41595 whole entry): as above
Chain of 5-ht1e (P28566 whole entry): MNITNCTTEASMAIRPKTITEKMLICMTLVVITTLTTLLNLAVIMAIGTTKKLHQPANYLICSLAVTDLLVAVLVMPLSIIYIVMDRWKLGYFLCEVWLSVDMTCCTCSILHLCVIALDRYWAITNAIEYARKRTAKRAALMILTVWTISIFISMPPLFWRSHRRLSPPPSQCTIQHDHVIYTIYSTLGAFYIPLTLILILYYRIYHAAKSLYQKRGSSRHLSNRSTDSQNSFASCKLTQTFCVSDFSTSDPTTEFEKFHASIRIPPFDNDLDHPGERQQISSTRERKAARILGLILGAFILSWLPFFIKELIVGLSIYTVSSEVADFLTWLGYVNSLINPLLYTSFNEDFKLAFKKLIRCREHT

COc1ccc2[nH]cc(CCNCc3cccc(C)c3)c2c1 [Compound 5j, N-(3-Methylbenzyl)-2-(5-methoxy-1H-indol-3-yl)ethan-1-amine]
5-HT6 pKi ± SEM (5-HT6): 7.21 ± 0.03 | Ki (5-HT6; read-out: 5-HT6 affinity): 62 nM | h5-HT2A pKi ± SEM (5-HT2A receptor [1]; [5]): 8.93 ± 0.11 | selectivity h5-HT2A versus h5-HT2C, affinity at the [125I]-DOI-labeled receptors (5-HT2A receptor [1]; agonist-labeled receptors): < 3 fold | Ki (5-HT2A receptor [1]; read-out: h5-HT2A Ki, [125I]DOI): 1.17 nM | max counts (Male C57BL/6J mice; SC): 14.6 | active doses (Male C57BL/6J mice; SC, mouse head twitch): 10 mg/kg | magnitude of peak effect × vehicle (Male C57BL/6J mice; SC, mouse head twitch): 3.5 × vehicle | maximally effective dose (Male C57BL/6J mice; SC, mouse head twitch): 10 mg/kg | HTR at 30 mg/kg (Male C57BL/6J mice; biphasic bell-shaped dose–response, 30 mg/kg SC): inactive | h5-HT2B pEC50 ± SEM (h5-HT2B; Ca2+ mobilization, NA = not active, Emax ≤ 15%): NA ^b (NA, not active; Emax ≤ 15%) | 5-HT2B pKi ± SEM (5-HT2B): 8.71 ± 0.03 | Ki (5-HT2B; read-out: 5-HT2B affinity): 1.9 nM | 5-HT1B pKi ± SEM (5-HT1B): 5.37 ± 0.07 | Ki (5-HT1B): 4240 nM | h5-HT2C pKi ± SEM (human 5-HT2C receptor [2]; [5]): 8.47 ± 0.08 | Ki (human 5-HT2C receptor [2]; read-out: h5-HT2C Ki, [125I]DOI): 3.39 nM | 5-HT1D pKi ± SEM (5-HT1D; PDSP screening, human): 6.55 ± 0.06 | Ki (5-HT1D; read-out: 5-HT1D affinity, PDSP screening, human): 283 nM | 5-ht5a pKi ± SEM (5-ht5a): 5.41 ± 0.06 | Ki (5-ht5a; read-out: 5-ht5a affinity): 3850 nM | 5-ht1e pKi ± SEM (5-ht1e; PDSP screening, human): 5.41 ± 0.05 | Ki (5-ht1e; read-out: 5-ht1e affinity, PDSP screening, human): 3880 nM | h5-HT2A pEC50 ± SEM (h5-HT2A; Ca2+ mobilization): 8.2 ± 0.04 | selectivity in function h5-HT2A vs h5-HT2C (h5-HT2A; Ca2+ mobilization): 44 fold | h5-HT2A Emax (h5-HT2A; [6]): 73.3 ± 1.0% | EC50 (h5-HT2A; read-out: h5-HT2A EC50, Ca2+ mobilization): 6.5 nM | h5-HT2C pKi ± SEM (human 5-HT2C receptor [3]; [3H]mesulergine, n = 3–5 displacement curves): 7.65 ± 0.03 | Ki (human 5-HT2C receptor [3]; read-out: h5-HT2C Ki, [3H]mesulergine): 22.4 nM | 5-HT1A pKi ± SEM (5-HT1A): 6.57 ± 0.04 | Ki (5-HT1A; read-out: 5-HT1A affinity): 271 nM | h5HT2C pEC50 ± SEM (h5-HT2C; Ca2+ mobilization): 6.54 ± 0.10 | h5HT2C Emax (h5-HT2C; [6]): 75 ± 4% | EC50 (h5-HT2C; read-out: h5HT2C EC50, Ca2+ mobilization): 289 nM | r5-HT2A pEC50 ± SEM (r5-HT2A; Ca2+ mobilization): 7.6 ± 0.04 | r5-HT2A Emax (r5-HT2A; [6]): 56.2 ± 0.9% | EC50 (r5-HT2A; read-out: r5-HT2A EC50, Ca2+ mobilization): 26 nM | 5-HT7 pKi ± SEM (5-HT7): 6.67 ± 0.05 | Ki (5-HT7; read-out: 5-HT7 affinity): 212 nM | Ki (5-HT3; read-out: 5-HT3 affinity, PDSP screening, human): > 10000 nM | h5-HT2A pKi ± SEM (5-HT2A receptor [4]; [3H]ketanserin, n = 3–5 displacement curves): 8.32 ± 0.17 | Ki (5-HT2A receptor [4]; read-out: h5-HT2A Ki, [3H]ketanserin): 4.79 nM | r5-HT2C pEC50 ± SEM (r5-HT2C; Ca2+ mobilization): 6.72 ± 0.04 | r5-HT2C Emax (r5-HT2C; [6]): 104 ± 2% | EC50 (r5-HT2C; read-out: r5-HT2C EC50, Ca2+ mobilization): 192 nM

COc1ccc2[nH]cc(CCNCc3cccc(I)c3)c2c1 [Compound 5i, N-(3-Iodobenzyl)-2-(5-methoxy-1H-indol-3-yl)ethan-1-amine]
Ki (5-HT6; 5-HT6 affinity): 27 nM | Ki (5-HT6; 5-HT6 pKi ± SEM): 26.3 nM | Ki (5-HT2A receptor [1]): 0.62 nM | h5-HT2A Ki (5-HT2A receptor [1]; [125I]DOI): subnanomolar affinity | max counts (Male C57BL/6J mice; SC): 20.2 | ED50 (Male C57BL/6J mice; Mus musculus, sc, read-out: ED50 mg/kg (95% CI), mouse head twitch): 7.77 mg/kg | magnitude of peak effect × vehicle (Male C57BL/6J mice; SC, mouse head twitch): 3.4 × vehicle | maximally effective dose (Male C57BL/6J mice; SC, mouse head twitch): 30 mg/kg | Emax (h5-HT2B; HEK293, read-out: h5-HT2B Emax): 31 ± 2% | EC50 (h5-HT2B; h5-HT2B EC50, Ca2+ mobilization): 43 nM | Ki (5-HT2B; 5-HT2B affinity): 0.76 nM | 5-HT1B pKi ± SEM (5-HT1B): 5.53 ± 0.05 | Ki (5-HT1B): 2960 nM | Ki (human 5-HT2C receptor [2]): 1.05 nM | Ki (5-HT1D): 199 nM | Ki (5-ht5a; 5-ht5a affinity): 1540 nM | Ki (5-ht1e): > 10000 nM | EC50 (h5-HT2A): 16 nM | Emax (h5-HT2A; HEK293, read-out: h5-HT2A Emax, percentage of the maximum response to 5-HT): 79 ± 1.1% | Ki (human 5-HT2C receptor [3]): 6.46 nM | Ki (5-HT1A; 5-HT1A affinity): 122 nM | Emax (h5-HT2C; HEK293, read-out: h5HT2C Emax): 94 ± 5% | EC50 (h5-HT2C; h5HT2C EC50, Ca2+ mobilization): 445 nM | EC50 (r5-HT2A; r5-HT2A EC50, Ca2+ mobilization): 120 nM | Emax (r5-HT2A; read-out: r5-HT2A Emax, percentage of the maximum response to 5-HT): 73.4 ± 1.4% | Ki (5-HT7; 5-HT7 pKi ± SEM): 21.9 nM | Ki (5-HT3): > 10000 nM | Ki (5-HT2A receptor [4]): 3.47 nM | EC50 (r5-HT2C; r5-HT2C EC50, Ca2+ mobilization): 313 nM | EC50 (r5-HT2C; r5-HT2C pEC50 ± SEM, Ca2+ mobilization): 309 nM | Emax (r5-HT2C; read-out: r5-HT2C Emax): 110 ± 3%
